From article PMC5421785, “Citrullination only infrequently impacts peptide binding to HLA class II MHC” (PLoS ONE, 2017)
Like-named read-outs stand apart in the source and are kept apart here. Square brackets hold non-standard residues; d marks the D form. Peptide text beside a SMILES is read from it. Cit = NC(=O)NCCC[C@H](N)C(=O)O

Columns and labels:
HLA-DRB1*01:01 = molecular target: T1, HLA-DRB1*01:01 (Homo sapiens, UniProt P01903+P01911, A100R/D57E/F55L/F60I/F76Y/I96L/L162R/M171V/P40L/Q125E/R42F/V115G/Y59C); assay: HLA class II peptide binding, inhibition of radiolabeled peptide binding to purified MHC
T1 construct: EBV transformed homozygous cell lines were used as sources of MHC molecules; endogenous in cells; host or cells: EBV transformed homozygous cell lines

HLA-DRB1*04:01 = molecular target: T2, HLA-DRB1*04:01 (Homo sapiens, UniProt P01903+P01911, A100K/A169T/F76Y/I96L/K127E/L162R/M171V/N62H/P40V/Q125Y/R42H/S133A/S149N/S66Y/V115G/V209L/W38E); assay: as above
T2 construct: EBV transformed homozygous cell lines were used as sources of MHC molecules; endogenous in cells; host or cells: EBV transformed homozygous cell lines

[1] = citrullinated peptide as listed (X at Cit position), read-out: DRB1*01:01 binding capacity Cit peptide (IC50 nM)
[2] = value of the wild-type (non-citrullinated) counterpart of the listed peptide, read-out: DRB1*01:01 binding capacity WT peptide (IC50 nM)
[3] = citrullinated peptide as listed (X at Cit position), read-out: DRB1*04:01 binding capacity Cit peptide (IC50 nM)
[4] = value of the wild-type (non-citrullinated) counterpart of the listed peptide, read-out: DRB1*04:01 binding capacity WT peptide (IC50 nM)
[5] = citrullinated 15-mer peptide (X = citrulline), purified HLA-DRB1*01:01, read-out: DRB1*01:01 binding capacity, Cit peptide (IC50 nM)
[6] = citrullinated 15-mer peptide (X = citrulline), purified HLA-DRB1*04:01, read-out: DRB1*04:01 binding capacity, Cit peptide (IC50 nM)
[7] = citrullinated 15-mer (X), purified MHC, inhibition of radiolabeled peptide binding, dash = IC50 >40,000 nM, read-out: DRB1*01:01 binding capacity, Cit peptide (IC50 nM)
[8] = citrullinated 15-mer (X), purified MHC, inhibition of radiolabeled peptide binding, dash = IC50 >40,000 nM, read-out: DRB1*04:01 binding capacity, Cit peptide (IC50 nM)

Structure (SMILES)	IC50 (HLA-DRB1*01:01; [1])	IC50 (HLA-DRB1*04:01; [3])	IC50 (HLA-DRB1*01:01; [5])	IC50 (HLA-DRB1*04:01; [6])	also measured
CC[C@H](C)[C@H](N)C(=O)N[C@@H](CCCNC(N)=O)C(=O)N[C@@H](C)C(=O)N[C@@H](CCC(=O)O)C(=O)NCC(=O)N[C@@H](CC(N)=O)C(=O)N[C@@H](CO)C(=O)N[C@@H](CCCNC(=N)N)C(=O)N[C@@H](Cc1ccccc1)C(=O)N[C@H](C(=O)N[C@@H](Cc1ccc(O)cc1)C(=O)N[C@H](C(=O)N[C@@H](C)C(=O)N[C@@H](CC(C)C)C(=O)N[C@@H](CCCCN)C(=O)O)[C@@H](C)O)[C@@H](C)O [IXAEGNSRFTYTALK] (H-I[Cit]AEGNSRFTYTALK-OH)	0.62 nM	2310 nM	–	–	IC50 (HLA-DRB1*01:01; [2]): 1.3 nM; IC50 (HLA-DRB1*04:01; [4]): 794 nM
CC(C)C[C@H](NC(=O)CNC(=O)[C@@H]1CCCN1C(=O)[C@H](C)NC(=O)CNC(=O)[C@@H]1CCCN1C(=O)[C@H](CC(C)C)NC(=O)CNC(=O)[C@H](CCCCN)NC(=O)[C@H](CCC(=O)O)NC(=O)CNC(=O)[C@H](C)NC(=O)[C@@H](N)CCCCN)C(=O)N[C@@H](CCCNC(N)=O)C(=O)NCC(=O)O [KAGEKGLPGAPGLXG] (H-KAGEKGLPGAPGL[Cit]G-OH)	–	–	578 nM	> 40000 nM	–
CSCC[C@H](NC(=O)[C@H](Cc1ccc(O)cc1)NC(=O)[C@H](CCC(N)=O)NC(=O)[C@H](CC(C)C)NC(=O)[C@@H]1CCCN1C(=O)[C@H](CC(=O)O)NC(=O)[C@@H]1CCCN1C(=O)CNC(=O)[C@@H](N)CCCCN)C(=O)N[C@@H](CCCNC(N)=O)C(=O)N[C@@H](C)C(=O)N[C@@H](CC(=O)O)C(=O)N[C@@H](CCC(N)=O)C(=O)N[C@@H](C)C(=O)N[C@@H](C)C(=O)O [KGPDPLQYMXADQAA] (H-KGPDPLQYM[Cit]ADQAA-OH)	9.2 nM	45 nM	–	–	–
CC[C@H](C)[C@H](NC(=O)[C@H](CC(=O)O)NC(=O)[C@H](CCSC)NC(=O)[C@@H]1CCCN1C(=O)[C@H](C)NC(=O)[C@@H](NC(=O)[C@H](CC(=O)O)NC(=O)[C@@H](NC(=O)[C@@H](NC(=O)[C@@H]1CCCN1C(=O)[C@H](CC(C)C)NC(=O)[C@H](CCCNC(N)=O)NC(=O)[C@H](CO)NC(=O)[C@@H](NC(=O)[C@@H](N)CCCCN)[C@@H](C)O)[C@@H](C)CC)[C@@H](C)CC)[C@@H](C)CC)C(=O)O [KTSXLPIIDIAPMDI] (H-KTS[Cit]LPIIDIAPMDI-OH)	634 nM	7060 nM	–	–	IC50 (HLA-DRB1*01:01; [2]): 361 nM; IC50 (HLA-DRB1*04:01; [4]): 8750 nM
CC[C@H](C)[C@H](NC(=O)CNC(=O)[C@H](CCCNC(=N)N)NC(=O)[C@H](CCC(N)=O)NC(=O)CNC(=O)[C@H](C)NC(=O)[C@@H](N)CC(C)C)C(=O)N[C@H](C(=O)NCC(=O)N[C@@H](CC(C)C)C(=O)N1CCC[C@H]1C(=O)NCC(=O)N[C@@H](CCC(N)=O)C(=O)N[C@@H](CCCNC(N)=O)C(=O)NCC(=O)O)C(C)C [LAGQRGIVGLPGQXG] (H-LAGQRGIVGLPGQ[Cit]G-OH)	–	–	1.3 nM	5040 nM	–
CC[C@H](C)[C@H](NC(=O)CNC(=O)[C@H](CCCNC(N)=O)NC(=O)[C@H](CCC(N)=O)NC(=O)CNC(=O)[C@H](C)NC(=O)[C@@H](N)CC(C)C)C(=O)N[C@H](C(=O)NCC(=O)N[C@@H](CC(C)C)C(=O)N1CCC[C@H]1C(=O)NCC(=O)N[C@@H](CCC(N)=O)C(=O)N[C@@H](CCCNC(=N)N)C(=O)NCC(=O)O)C(C)C [LAGQXGIVGLPGQRG] (H-LAGQ[Cit]GIVGLPGQRG-OH)	–	–	13 nM	10500 nM	–
CSCC[C@H](NC(=O)[C@H](CCC(N)=O)NC(=O)[C@@H](NC(=O)[C@H](CC(N)=O)NC(=O)[C@H](C)NC(=O)[C@@H](NC(=O)[C@H](CC(N)=O)NC(=O)[C@@H]1CCCN1C(=O)[C@H](C)NC(=O)[C@@H](N)CC(C)C)[C@@H](C)O)C(C)C)C(=O)N[C@H](C(=O)N[C@@H](Cc1ccccc1)C(=O)N[C@@H](CC(C)C)C(=O)N[C@@H](CCCNC(N)=O)C(=O)N[C@@H](CC(C)C)C(=O)O)[C@@H](C)O [LAPNTANVQMTFLXL] (H-LAPNTANVQMTFL[Cit]L-OH)	54 nM	17400 nM	–	–	–
CSCC[C@H](NC(=O)[C@H](CCC(=O)O)NC(=O)[C@H](CCC(=O)O)NC(=O)[C@H](CCC(=O)O)NC(=O)[C@H](Cc1ccc(O)cc1)NC(=O)[C@H](CC(C)C)NC(=O)[C@H](CC(=O)O)NC(=O)CNC(=O)[C@@H](N)CC(C)C)C(=O)N[C@@H](CCCNC(=N)N)C(=O)N[C@@H](CCC(=O)O)C(=O)N[C@@H](CC(C)C)C(=O)N[C@@H](CCCNC(=N)N)C(=O)N[C@@H](CCCNC(N)=O)C(=O)N[C@@H](CCC(N)=O)C(=O)O [LGDLYEEEMRELRXQ]	–	–	–	–	IC50 (HLA-DRB1*01:01; [7]): 14800 nM; IC50 (HLA-DRB1*04:01; [8]): > 40000 nM
CSCC[C@H](NC(=O)[C@H](CCC(=O)O)NC(=O)[C@H](CCC(=O)O)NC(=O)[C@H](CCC(=O)O)NC(=O)[C@H](Cc1ccc(O)cc1)NC(=O)[C@H](CC(C)C)NC(=O)[C@H](CC(=O)O)NC(=O)CNC(=O)[C@@H](N)CC(C)C)C(=O)N[C@@H](CCCNC(=N)N)C(=O)N[C@@H](CCC(=O)O)C(=O)N[C@@H](CC(C)C)C(=O)N[C@@H](CCCNC(N)=O)C(=O)N[C@@H](CCCNC(=N)N)C(=O)N[C@@H](CCC(N)=O)C(=O)O [LGDLYEEEMRELXRQ]	–	–	–	–	IC50 (HLA-DRB1*01:01; [7]): 12500 nM; IC50 (HLA-DRB1*04:01; [8]): > 40000 nM
CSCC[C@H](NC(=O)[C@H](CCC(=O)O)NC(=O)[C@H](CCC(=O)O)NC(=O)[C@H](CCC(=O)O)NC(=O)[C@H](Cc1ccc(O)cc1)NC(=O)[C@H](CC(C)C)NC(=O)[C@H](CC(=O)O)NC(=O)CNC(=O)[C@@H](N)CC(C)C)C(=O)N[C@@H](CCCNC(N)=O)C(=O)N[C@@H](CCC(=O)O)C(=O)N[C@@H](CC(C)C)C(=O)N[C@@H](CCCNC(=N)N)C(=O)N[C@@H](CCCNC(=N)N)C(=O)N[C@@H](CCC(N)=O)C(=O)O [LGDLYEEEMXELRRQ]	–	–	–	–	IC50 (HLA-DRB1*01:01; [7]): 13800 nM; IC50 (HLA-DRB1*04:01; [8]): > 40000 nM
CSCC[C@H](NC(=O)[C@H](Cc1ccc(O)cc1)NC(=O)[C@H](CCC(N)=O)NC(=O)[C@H](CC(C)C)NC(=O)[C@@H]1CCCN1C(=O)[C@H](CC(=O)O)NC(=O)[C@@H]1CCCN1C(=O)CNC(=O)[C@H](CCCCN)NC(=O)[C@H](CCC(=O)O)NC(=O)[C@H](CCCNC(=N)N)NC(=O)[C@@H]1CCCN1C(=O)CNC(=O)[C@@H](N)CC(C)C)C(=O)N[C@@H](CCCNC(N)=O)C(=O)O [LGPREKGPDPLQYMX] (H-LGPREKGPDPLQYM[Cit]-OH)	19700 nM	> 40000 nM	–	–	IC50 (HLA-DRB1*04:01; [4]): > 40000 nM
CSCC[C@H](NC(=O)[C@H](Cc1ccc(O)cc1)NC(=O)[C@H](CCC(N)=O)NC(=O)[C@H](CC(C)C)NC(=O)[C@@H]1CCCN1C(=O)[C@H](CC(=O)O)NC(=O)[C@@H]1CCCN1C(=O)CNC(=O)[C@H](CCCCN)NC(=O)[C@H](CCC(=O)O)NC(=O)[C@H](CCCNC(N)=O)NC(=O)[C@@H]1CCCN1C(=O)CNC(=O)[C@@H](N)CC(C)C)C(=O)N[C@@H](CCCNC(=N)N)C(=O)O [LGPXEKGPDPLQYMR] (H-LGP[Cit]EKGPDPLQYMR-OH)	–	–	10900 nM	> 40000 nM	–
CSCC[C@H](NC(=O)[C@@H](NC(=O)CNC(=O)[C@@H](N)CC(C)C)C(C)C)C(=O)N[C@@H](CCC(N)=O)C(=O)NCC(=O)N1CCC[C@H]1C(=O)N[C@@H](CCSC)C(=O)NCC(=O)N1CCC[C@H]1C(=O)N[C@@H](CCSC)C(=O)NCC(=O)N1CCC[C@H]1C(=O)N[C@@H](CCCNC(N)=O)C(=O)NCC(=O)O [LGVMQGPMGPMGPXG] (H-LGVMQGPMGPMGP[Cit]G-OH)	–	–	220 nM	> 40000 nM	–
CC(C)C[C@H](NC(=O)[C@H](CCC(=O)O)NC(=O)[C@H](C)NC(=O)[C@H](CC(C)C)NC(=O)[C@@H](N)CC(C)C)C(=O)N[C@@H](CCC(=O)O)C(=O)N[C@@H](CCC(N)=O)C(=O)N[C@@H](CC(C)C)C(=O)N[C@@H](CCCCN)C(=O)NCC(=O)N[C@@H](CCC(N)=O)C(=O)NCC(=O)N[C@@H](CCCCN)C(=O)N[C@@H](CO)C(=O)N[C@@H](CCCNC(N)=O)C(=O)O [LLAELEQLKGQGKSX] (H-LLAELEQLKGQGKS[Cit]-OH)	–	–	–	–	IC50 (HLA-DRB1*01:01; [7]): 428 nM; IC50 (HLA-DRB1*04:01; [8]): > 40000 nM
CC[C@H](C)[C@H](NC(=O)[C@H](CC(C)C)NC(=O)[C@@H](N)CC(C)C)C(=O)N[C@@H](CCC(N)=O)C(=O)NCC(=O)N[C@@H](CO)C(=O)N[C@@H](CC(N)=O)C(=O)N[C@@H](CC(=O)O)C(=O)N[C@H](C(=O)N[C@@H](CCC(=O)O)C(=O)N[C@H](C(=O)N[C@@H](CCCNC(N)=O)C(=O)N[C@@H](C)C(=O)N[C@@H](CCC(=O)O)C(=O)NCC(=O)O)[C@@H](C)CC)C(C)C [LLIQGSNDVEIXAEG] (H-LLIQGSNDVEI[Cit]AEG-OH)	998 nM	8740 nM	–	–	–
CC(C)C[C@H](NC(=O)[C@H](CC(N)=O)NC(=O)[C@@H](NC(=O)[C@H](CCC(=O)O)NC(=O)[C@H](CCCNC(N)=O)NC(=O)[C@H](CC(C)C)NC(=O)[C@H](CC(N)=O)NC(=O)[C@@H](N)CC(C)C)[C@@H](C)O)C(=O)N[C@@H](CC(=O)O)C(=O)N[C@@H](CO)C(=O)N[C@@H](CC(C)C)C(=O)N1CCC[C@H]1C(=O)N[C@@H](CC(C)C)C(=O)N[C@H](C(=O)N[C@@H](CC(=O)O)C(=O)O)C(C)C [LNLXETNLDSLPLVD]	–	–	69 nM	4340 nM	–
CC(C)C[C@H](NC(=O)CNC(=O)[C@H](CCCNC(=N)N)NC(=O)[C@H](C)NC(=O)CNC(=O)[C@@H]1CCCN1C(=O)[C@@H](N)CC(C)C)C(=O)N[C@H](C(=O)NCC(=O)N[C@@H](CCCNC(N)=O)C(=O)N1CCC[C@H]1C(=O)NCC(=O)N[C@@H](CC(=O)O)C(=O)N[C@@H](C)C(=O)NCC(=O)O)[C@@H](C)O [LPGARGLTGXPGDAG] (H-LPGARGLTG[Cit]PGDAG-OH)	–	–	18 nM	> 40000 nM	–
